Structures can show the parent of a compound that is named as a salt.

The results in this text go back to US12071450B2, “Salts of conjugates for cancer therapy” (Biosight Ltd., priority 2015, dated 2024).

For series [1], the system named is L1210 leukemia cancer cells. As to the kind of experiment: MTT proliferation assay, L1210 leukemia cancer cells. It counts as cell-based. The note with it: 72 hr incubation, formulated in saline, 6 replicates. How it is done:
The L1210 leukemia cancer cells were grown in DMEM medium with 10% Donor Horse Serum, 1% Glutamine, 1% Non-essential Amino Acids, 0.1% Amphotericin, and 0.1% Gentamicin. Cells were diluted and seeded into 96-wells plate 2000 cells/ml, 400 cells/well, in a volume of 0.2 ml per well. The plates were incubated at 37° C. for 180 min. Following incubation, test substances were added at increasing concentrations from […] formulated in saline in 6 replicates each. The tested substances were Asp(Cytarabine).Acetate salt form, Asp(Cytarabine).hydrochloride salt form, Asp(Cytarabine).Methansulfonate salt form, Asp(Cytarabine).Benzenesulfonate salt form and Asp(Cytarabine).phosphate salt form. Test plates also included 6 replicate wells of saline as control. Plates were incubated at 37° C. for 72 hr prior to analysis. At the end of the exposure period, an MTT [3-(4,5-dimethylthiazole-2-yl)-2,5-diphenyl tetrazolium bromide] assay was performed. To each test well MTT at concentration of 5 mg/ml was added in a volume of 0.02 ml. Plates were incubated at 37° C. for 3 hr, then centrifuged at 3500 rpm for 6 minutes and the supernatants were aspirated. The pellets which contained MTT crystals were dissolved in 0.2 ml DMSO each. Absorbance was determined using ELISA reader at a wavelength of 570 nm.
For orientation: Tetrazolium assays rely on reduction of a dye to a coloured formazan, in cell work by metabolically active cells.

The nature of series [2]: Solubility in water and organic solvents. It counts as physicochemical.
The nature of series [3]: Stability (decomposition) in solvents. Format: physicochemical. The conditions noted are these: rate is determined by heat and time.
Series [4] concerns Molt-4, Human acute lymphoblastic leukemia. Put plainly: MTT proliferation assay, Molt-4 cells. Format: cell-based. The note with it: 3 replicates.
Series [5] relates to HL-60, Human promyelocytic leukemia. Put plainly: MTT proliferation assay, HL-60 cells. Format: cell-based. The note with it: 3 replicates.
The subject of series [6] is CCRF-SB, Human acute lymphoblastic leukemia. Put plainly: MTT proliferation assay, CCRF-SB cells. It counts as cell-based. The note with it: 3 replicates.
Series [7] relates to K562, Human chronic myelogenous leukemia. Put plainly: MTT proliferation assay, K562 cells. Format: cell-based. The conditions noted are these: 3 replicates.
Series [8] has as its system CCRF-CEM, Human acute lymphoblastic leukemia. Put plainly: MTT proliferation assay, CCRF-CEM cells. Format: cell-based. The note with it: 3 replicates.

By IC50 is commonly meant the midpoint of a concentration-inhibition curve. Turning to Asp(Cytarabine).benzenesulfonate, in series [1], inhibition was half-maximal at 23 nM (IC50).

Take `Cl.NC(CC(=O)Nc1ccn([C@@H]2O[C@H](CO)C(O)C2O)c(=O)n1)C(=O)O` (some centres unmarked) [Asp(Cytarabine)•hydrochloride salt form, Asp(Cytarabine).HCl]: the midpoint of inhibition in series [1], the IC50, lay at 240 nM. Further, in series [2] (most organic solvents: acetonitrile, ethers, ketones, halogenated solvents), the “solubility in organic solvents” value was “insoluble”. Besides, the solubility in water entry in series [2] (water) is “soluble”. Further, the “stability in strong polar aprotic solvents” value in series [3] (DMSO and DMF) is reported as “decompose”. In series [3] (water), the stability in water entry is reported as “decompose”.

Asp(Cytarabine).methanesulfonate: half-maximal inhibition in series [1] (IC50) required 2 nM.

`NC(CC(=O)Nc1ccn([C@@H]2O[C@H](CO)C(O)C2O)c(=O)n1)C(=O)O` (some centres unmarked) [Asp(Cytarabine)•Acetate salt form, Asp(Cytarabine).Acetate]: the IC50 in series [1] turned out to be 116 nM; in series [4], 12 nM; in series [5] it was 262 nM; in series [6], 19 µM; in series [7], 355 nM; in series [8], 23 nM.

On to “Asp(Cytarabine).phosphate [Asp(Cytarabine)•phosphate salt form]”, for which inhibition in series [1] was half-maximal at 34 nM (IC50).
